Results from patent US11518747B2, “Solid forms of an N-terminal domain androgen receptor inhibitor and uses thereof” (ESSA Pharma, Inc., priority 2020, dated 2022).
Values after ≈ are worked out from the molar mass of the structure shown.

Experiments:
[1] = system: Androgen-induced PSA-luciferase activity; assay: Androgen-induced PSA (6.1 kb)-luciferase reporter assay in transiently transfected LNCaP cells; format: cell-based; details: Homo sapiens, R1881 1 nM, 24 h
Method: To determine the IC50, treatments were normalized to the maximum activity with androgen-induction (in the absence of test compounds, vehicle only) (Table 12).
Luciferase Assay: Lysates were thawed on ice then collected into V-bottom 96-well tissue culture plates. Lysates were centrifuged at 4° C. for 5 minutes at 4000 rpm. To measure luminescence of LNCaP cell lysates the Firefly Luciferase Assay System (Promega) was employed, according to manufacturer's protocol.
Comparisons between treatment and control groups were compared using Two-Way ANOVA with post-hoc Dunnett's and Tukey's tests. Differences were considered statistically significant at P values less than 0.05. Densitometric quantification of relative AR levels was determined by Image.

[2] = Approximate solubility by solvent aliquot addition, visual inspection; format: physicochemical; details: organic solvent or mixture, thermodynamic from solid
Method: The approximate solubility of Compound I in various organic solvents was determined by adding solvent aliquots to weighed samples Compound I. Weighed samples of Compound I were treated with aliquots of the test solvents or solvent mixtures at ambient temperature. Complete dissolution of the test material was determined by visual inspection. Solubility was estimated based on the total solvent volume used to provide complete dissolution. The actual solubility may be greater than the value calculated because of the use of solvent aliquots that were too large or due to a slow rate of dissolution. If complete dissolution was not achieved during the experiment, the solubility is expressed as “less than” (<). If complete dissolution was achieved by only one aliquot addition, the value is reported as “larger than” (>).

[3] = Equilibrium solubility acquired at 24 hours; format: physicochemical; details: organic solvent or mixture, thermodynamic from solid
[4] = Amorphous solubility by slow addition from organic stock into aqueous media (UV/Vis scattering, DLS); format: physicochemical; details: for solubility: kinetic from dmso stock
From the text: Solubility: Generally, the solubility of an amorphous form is higher than that of the corresponding crystal form, due to the lack of crystalline lattice forces in the amorphous state. Solubility of the amorphous form of Compound I was studied by slow addition of the amorphous form from an organic stock solution into the pH 6.5 phosphate-buffered saline (PBS) solution or 0.5% wt simulated intestinal fluid (SIF) in pH 6.5 PBS. When the amorphous solubility is reached, a drug-rich phase forms which typically scatters light (e.g., liquid-liquid phase separation or LLPS), which can be detected by scattering of UV/Visible light and/or by dynamic light scattering (DLS).
No scattering event prior to crystallization was observed.

[5] = Physical stability of solid forms (drying, storage, slurry; XRPD); format: physicochemical; details: for XRPD result after stirring: RT, 4 d
Method: Based on experimental conditions to generate Material B and its drying studies, without being bound to any theory, Material B could be a solvated material which can convert to Material C upon drying.
In order to evaluate the relative stability between Form A and Material C, a competitive slurry was performed. About equal amounts (by mass) of Material C (mixture w/some Form A) and Form A were added to acetone so that solids persisted and were stirred at room temperature for 9 days. Solids were isolated by centrifugation using Spin-X centrifuge tubes equipped with a 0.45 μm nylon filter. Beige solids were observed. […] Material C could be an anhydrous material.
Further analyses including ^1H NMR and TGA were also collected on this amorphous sample (Table 10). The ^1H NMR spectrum was consistent with the chemical structure of Compound I and contains trace amount of DCM. By TGA (FIG. 9), about 1.0 wt % loss is observed from 45-200° C., which is likely due to the residual DCM and moisture in the material. The dramatic change in the slope of the TGA thermogram starting at 280° C. (onset) is likely associated with the decomposition of the material. […] A repeated rotary evaporation attempt from DCM solution generated disordered Compound I Form A (FIG. 7, second spectrum from bottom) after the sample was secondary dried at ambient temperature under vacuum for 3 days, which provides further evidence that amorphous Compound I is not physically stable.
Crystallization studies were performed on this disordered material (Table 10) and solids were stirred in acetone and H2O for 4 days at ambient conditions. Both experiments generated crystalline Form A (FIG. 10, bottom two spectra).

[6] = Dynamic vapor sorption (DVS) analysis; format: physicochemical; design: Hysteresis: unit not given here
Method: In one embodiment, the crystalline forms are characterized by Dynamic Vapor Sorption (DVS). The DVS profile is typically expressed by a diagram plotting the sample relative humidity (RH) versus the change in mass (%). The DVS profile provides information on hygroscopicity of the crystalline form at different RH conditions.
DVS (dynamic vapor sorption) analysis was carried out on Form A (Table 2, FIG. 3).

[7] = target RH 95.0 %, sample RH 96.0 %

CC(O)(CS(=O)(=O)c1ccc(F)cc1)C(=O)Nc1ccc(C#N)c(C(F)(F)F)c1 (stereo not drawn) [Bicalutamide]
IC50 [1]: 306 nM

CC(C)(c1ccc(OCc2ccnc(NS(C)(=O)=O)n2)cc1)c1cc(Cl)c(OCCCl)c(C#N)c1 [Compound I, N-{4-[(4-{2-[3-chloro-4-(2-chloroethoxy)-5-cyanophenyl]propan-2-yl}phenoxy)methyl]pyrimidin-2-yl}methanesulfonamide]
solubility ([2]; dioxane (printed 'dioxant'), dioxant, ambient temperature, read-out: Solubility): > 107000 µg/mL | solubility ([2]; DCM, ambient temperature, read-out: Solubility): 20000 µg/mL (≈ 37.4 mM) | solubility ([2]; DMA, ambient temperature, read-out: Solubility): > 79000 µg/mL | solubility ([2]; Et2O, ambient temperature, read-out: Solubility): < 2000 µg/mL | solubility ([2]; MEK, ambient temperature, read-out: Solubility): 6000 µg/mL (≈ 11.2 mM) | solubility ([2]; MTBE, ambient temperature, read-out: Solubility): < 1000 µg/mL | solubility ([2]; NMP, ambient temperature, read-out: Solubility): > 117000 µg/mL | solubility ([2]; THF, ambient temperature, read-out: Solubility): 54000 µg/mL (≈ 101 mM) | solubility ([2]; iPrOAc, ambient temperature, read-out: Solubility): < 1000 µg/mL | solubility ([2]; p-dioxane, from observations on samples at much larger scales, read-out: Approximate solubility): 35000 to 103000 µg/mL (≈ 65.4 to 192 mM) | solubility ([2]; toluene, ambient temperature, read-out: Solubility): 1000 µg/mL (≈ 1.87 mM) | IC50 [1]: 535 nM | solubility at 24 h ([3]; ACN): 2040 µg/mL (≈ 3.81 mM) | solubility at 24 h ([3]; DMSO): > 12000 µg/mL | solubility at 24 h ([3]; EtOAc): 1970 µg/mL (≈ 3.68 mM) | solubility at 24 h ([3]; EtOH): 170 µg/mL (≈ 0.317 mM) | solubility at 24 h ([3]; MeOH): 210 µg/mL (≈ 0.392 mM) | solubility at 24 h ([3]; acetone): 5300 µg/mL (≈ 9.9 mM) | Crystalline solubility [4]: very low

CC(C)(c1ccc(OCc2ccnc(NS(C)(=O)=O)n2)cc1)c1cc(Cl)c(OCCCl)c(C#N)c1 [Disordered]
XRPD result after stirring ([5]; H2O): Form A | XRPD result after stirring ([5]; acetone): Form A

CC(C)(c1ccc(OCc2ccnc(NS(C)(=O)=O)n2)cc1)c1cc(Cl)c(OCCCl)c(C#N)c1 [Form A, N-{4-[(4-{2-[3-chloro-4-(2-chloroethoxy)-5-cyanophenyl]propan-2-yl}phenoxy)methyl]pyrimidin-2-yl}methanesulfonamide]
Relative stability, competitive slurry ([5]; Material C (with some Form A) and Form A in acetone, room temperature, 9 days): more stable than Material C | Solids recovered after DVS analysis, by XRPD ([6]; after DVS cycle): consistent with Form A | Total weight gain during sorption ([6]; from 5% to 95% RH): 5.474% | Weight gain during sorption ([6]; from 55% to 85% RH): 1.978 wt % | Weight gain during sorption ([6]; from 85% RH to 95% RH): 3.106 wt % | Weight loss during desorption ([6]; from 95% RH to 5% RH): 5.472% | Sorp Mass Change ([6]; target RH 5.0 %, sample RH 4.9 %): 0.000% | Desorp Mass Change ([6]; target RH 5.0 %, sample RH 5.4 %): 0.002% | Hysteresis ([6]; target RH 15.0 %): 0.013 | Sorp Mass Change ([6]; target RH 15.0 %, sample RH 15.4 %): 0.055% | Desorp Mass Change ([6]; target RH 15.0 %, sample RH 16.1 %): 0.060% | Hysteresis ([6]; target RH 25.0 %): 0.036 | Sorp Mass Change ([6]; target RH 25.0 %, sample RH 24.9 %): 0.111% | Desorp Mass Change ([6]; target RH 25.0 %, sample RH 25.6 %): 0.146% | Hysteresis ([6]; target RH 45.0 %): 0.474 | Sorp Mass Change ([6]; target RH 45.0 %, sample RH 44.8 %): 0.242% | Desorp Mass Change ([6]; target RH 45.0 %, sample RH 45.6 %): 0.716% | Hysteresis ([6]; target RH 55.0 %): 0.650 | Sorp Mass Change ([6]; target RH 55.0 %, sample RH 54.5 %): 0.390% | Desorp Mass Change ([6]; target RH 55.0 %, sample RH 55.5 %): 1.040% | Hysteresis ([6]; target RH 65.0 %): 0.452 | Desorp Mass Change ([6]; target RH 65.0 %, sample RH 65.6 %): 1.438% | Sorp Mass Change ([6]; target RH 65.0 %, sample RH […]): 0.906% | Hysteresis ([6]; target RH 75.0 %): 0.364 | Sorp Mass Change ([6]; target RH 75.0 %, sample RH 74.5 %): 1.567% | Desorp Mass Change ([6]; target RH 75.0 %, sample RH 75.5 %): 1.931% | Hysteresis ([6]; target RH 85.0 %): 0.604 | Sorp Mass Change ([6]; target RH 85.0 %, sample RH 84.7 %): 2.368% | Desorp Mass Change ([6]; target RH 85.0 %, sample RH 85.8 %): 2.072% | Desorp Mass Change [6, 7]: 5.474% | Sorp Mass Change [6, 7]: 5.474% | Hysteresis ([6]; target RH […]): 0.108 | Sorp Mass Change ([6]; target RH […], sample RH 34.5 %): 0.169% | Desorp Mass Change ([6]; target RH […], sample RH 35.3 %): 0.277% | Hygroscopicity ([6]; within 5%-55% RH): low hygroscopicity | Hygroscopicity ([6]; within 55%-85% RH): limited hygroscopicity | Hygroscopicity ([6]; within 85%-95% RH): significant hygroscopicity

CC(C)(c1ccc(OCc2ccnc(NS(C)(=O)=O)n2)cc1)c1cc(Cl)c(OCCCl)c(C#N)c1 [Material B]
Stability upon drying [5]: unstable upon drying | XRPD result after drying ([5]; 65-66° C., vacuum, 5 d): mixture of Form A and Material C | XRPD result after drying ([5]; RT (ambient), on filter paper, 3 d): disordered Material C

CC(C)(c1ccc(OCc2ccnc(NS(C)(=O)=O)n2)cc1)c1cc(Cl)c(OCCCl)c(C#N)c1 [Material D]
XRPD result after drying ([5]; 50-52° C., vacuum, 3 d): desolvate into Form A

CC(C)(c1ccc(OC[C@H](O)CNS(C)(=O)=O)cc1)c1cc(Cl)c(OC[C@H](O)CCl)c(Cl)c1 [Reference Compound X]
IC50 [1]: 1050 nM

CC(C)(c1ccc(OCc2ccnc(NS(C)(=O)=O)n2)cc1)c1cc(Cl)c(OCCCl)c(C#N)c1 [amorphous form of Compound I]
XRPD result after storage ([5]; ambient (RT), desiccator, about 10 days): disordered Form A | Physical stability ([5]; ambient temperature): physically not stable | solubility ([4]; 0.5% wt simulated intestinal fluid in PBS, fassgf or other biorelevant, 0.5% SIF (pH 6.5)): > 25 µg/mL | solubility ([4]; phosphate-buffered saline, aqueous buffer, pH 6.5 PBS): > 2.5 µg/mL | Amorphous solubility relative to crystalline solubility ([4]; simulated intestinal media): at least 20 ×
